Several values for one entry are separate records, joined by “and”; a condition that tells them apart may be missing. Equal values may be shown once. Where a SMILES comes first, the peptide text is derived from it. [ ]: non-standard residue; d: D form. Hyp = O=C(O)[C@@H]1C[C@@H](O)CN1
Test system: IL-1 beta/IL-1F2
Test: Example 8 main study Luminex, LPS hPBMCs: IL-1 beta/IL-1F2
Assay type: cell-based, human
Procedure: Human PBMCs were pretreated with YY-101, YDE-011, YDE-043 or reference compound; Xiidra® at various concentration (ranging from […] to 500 nM) for 2 h before stimulation. An equal volume of 0.5% DMSO was used as a vehicle control. Then, the cells were treated with LPS at 5 ug/ml, which was selected based on the pilot study. The supernatants from treated cells were harvested at 24 h and placed in a 96 well for Luminex cytokine & chemokine profiling using a Luminex 200 multiplex assay (Luminex; R&D system, USA).
The main study arm with triplicate wells per group in a 24-well plate: • 1. Blank • 2. PBMC: 0.5% DMSO • 3. PBMC+LPS (5 ug/ml) • 4. PBMC+YY-101 500 nM • 5. PBMC+YY-101 50 nM • 6. PBMC+YY-101 5 nM • 7. PBMC+YY-101 0.5 nM • 8. PBMC+LPS (5 ug/ml)+Xiidra® 500 nM • 9. PBMC+LPS (5 ug/ml)+Xiidra® 50 nM • 10. PBMC+LPS (5 ug/ml)+Xiidra® 5 nM • 11. PBMC+LPS (5 ug/ml)+Xiidra® 0.5 nM • 12. PBMC+LPS (5 ug/ml)+Xiidra® 0.05 nM • 13. PBMC+LPS (5 ug/ml)+Xiidra® 0.005 nM • 14. PBMC+LPS (5 ug/ml)+YY-101 500 nM • 15. PBMC+LPS (5 ug/ml)+YY-101 50 nM • 16. PBMC+LPS (5 ug/ml)+YY-101 5 nM • 17. PBMC+LPS (5 ug/ml)+YY-101 0.5 nM • 18. PBMC+LPS (5 ug/ml)+YY-101 0.05 nM • 19. PBMC+LPS (5 ug/ml)+YY-101 0.005 nM • 20. PBMC+LPS (5 ug/ml)+YDE-011 500 nM • 21. PBMC+LPS (5 ug/ml)+YDE-011 50 nM • 22. PBMC+LPS (5 ug/ml)+YDE-011 5 nM • 23. PBMC+LPS (5 ug/ml)+YDE-011 0.5 nM • 24. PBMC+LPS (5 ug/ml)+YDE-011 0.05 nM • 25. PBMC+LPS (5 ug/ml)+YDE-011 0.005 nM • 26. PBMC+LPS (5 ug/ml)+YDE-043 500 nM • 27. PBMC+LPS (5 ug/ml)+YDE-043 50 nM • 28. PBMC+LPS (5 ug/ml)+YDE-043 5 nM • 29. PBMC+LPS (5 ug/ml)+YDE-043 0.5 nM • 30. PBMC+LPS (5 ug/ml)+YDE-043 0.05 nM • 31. PBMC+LPS (5 ug/ml)+YDE-043 0.005 nM
Multiplex assay was used to measure 30 cytokines and chemokines. The 1:200 diluted cell supernatant and serial dilution of the standard were dispensed into a 96 well plate at 50 ul/well. Then, the pre-mixed cocktail of antibody-coated magnetic beads was dispensed at 50 ul/well and incubated at room temperature for 2 h in a horizontal orbital microplate shaker at 800±500 rpm. The beads were washed using a magnetic device to prevent loss. The biotin-antibody was dispensed in 50 ul of each well and incubated at room temperature for 1 h in a shaker at 800±500 rpm. After washing, streptavidin-PE was added at 50 ul/well and incubated at room temperature for 30 min in a shaker under the same conditions. Finally, after washing, wash buffer (100 ul/well) was added to the plate and incubated in a shaker for 2 min. The Luminex™ 200 setting were set according to the manufacturer's protocol. The data was calculated with a standard five-parameter logistic nonlinear regression analysis of the data (xPonent software 4.2, USA). Results were presented as concentration (ng/ml or pg/ml).

[1] = PBMC + LPS(5 ug/ml) + test article 0.005 nM, Mean
[2] = PBMC + LPS(5 ug/ml) + test article 0.005 nM, individual replicates
[3] = PBMC + LPS(5 ug/ml) + test article 0.05 nM, Mean
[4] = PBMC + LPS(5 ug/ml) + test article 0.05 nM, individual replicates
[5] = PBMC + LPS(5 ug/ml) + test article 0.5 nM, Mean
[6] = PBMC + LPS(5 ug/ml) + test article 0.5 nM, individual replicates
[7] = PBMC + LPS(5 ug/ml) + test article 5 nM, Mean
[8] = PBMC + LPS(5 ug/ml) + test article 5 nM, individual replicates
[9] = PBMC + LPS(5 ug/ml) + test article 50 nM, Mean
[10] = PBMC + LPS(5 ug/ml) + test article 50 nM, individual replicates
[11] = PBMC + LPS(5 ug/ml) + test article 500 nM, Mean
[12] = PBMC + LPS(5 ug/ml) + test article 500 nM, individual replicates

## CC(C)C[C@H](NC(=O)CNC(=O)[C@H](CC(C)C)NC(=O)[C@H](CCC(N)=O)NC(=O)CNC(=O)[C@@H]1C[C@@H](O)CN1)C(=O)N[C@@H](C)C(=O)NCC(=O)N1CCC[C@H]1C(=O)N[C@@H](CCCCN)C(=O)O [YDE-011] (H-[Hyp]GQLGLAGPK-OH)
[1]
  IL-1 beta/IL-1F2 Concentration: 5171.7 pg/mL
  IL-1 beta/IL-1F2 MFI: 94.5
[2]
  IL-1 beta/IL-1F2 Concentration: 5350.1 pg/mL and 5023.0 pg/mL and 5141.9 pg/mL
  IL-1 beta/IL-1F2 MFI: 97.5 and 92.0 and 94.0
[3]
  IL-1 beta/IL-1F2 Concentration: 5836.1 pg/mL
  IL-1 beta/IL-1F2 MFI: 105.7
[4]
  IL-1 beta/IL-1F2 Concentration: 5796.4 pg/mL and 6094.1 pg/mL and 5617.8 pg/mL
  IL-1 beta/IL-1F2 MFI: 105.0 and 110.0 and 102.0
[5]
  IL-1 beta/IL-1F2 Concentration: 4864.5 pg/mL
  IL-1 beta/IL-1F2 MFI: 89.3
[6]
  IL-1 beta/IL-1F2 Concentration: 4844.7 pg/mL and 4963.6 pg/mL and 4785.3 pg/mL
  IL-1 beta/IL-1F2 MFI: 89.0 and 91.0 and 88.0
[7]
  IL-1 beta/IL-1F2 Concentration: 4350.3 pg/mL
  IL-1 beta/IL-1F2 MFI: 80.7
[8]
  IL-1 beta/IL-1F2 Concentration: 3539.2 pg/mL and 4250.8 pg/mL and 5260.9 pg/mL
  IL-1 beta/IL-1F2 MFI: 67.0 and 79.0 and 96.0
[9]
  IL-1 beta/IL-1F2 Concentration: 4786.7 pg/mL
  IL-1 beta/IL-1F2 MFI: 88.0
[10]
  IL-1 beta/IL-1F2 Concentration: 5558.3 pg/mL and 5617.8 pg/mL and 3183.9 pg/mL
  IL-1 beta/IL-1F2 MFI: 101.0 and 102.0 and 61.0
[11]
  IL-1 beta/IL-1F2 Concentration: 4262.6 pg/mL
  IL-1 beta/IL-1F2 MFI: 79.2
[12]
  IL-1 beta/IL-1F2 Concentration: 5796.4 pg/mL and 2681.1 pg/mL and 4310.2 pg/mL
  IL-1 beta/IL-1F2 MFI: 105.0 and 52.5 and 80.0

## CC(C)C[C@H](NC(=O)[C@H](CCC(N)=O)NC(=O)CNC(=O)[C@@H]1C[C@@H](O)CN1)C(=O)NCC(=O)O [YDE-043] (H-[Hyp]GQLG-OH; N-terminus and C-terminus assumed)
LPS 5 ug/mL 24 hrs
  LPS-induced IL-1b levels (in words): significantly lowered
[1]
  IL-1 beta/IL-1F2 Concentration: 5499.4 pg/mL
  IL-1 beta/IL-1F2 MFI: 100.0
[2]
  IL-1 beta/IL-1F2 Concentration: 4547.7 pg/mL and 5320.3 pg/mL and 6630.3 pg/mL
  IL-1 beta/IL-1F2 MFI: 84.0 and 97.0 and 119.0
[3]
  IL-1 beta/IL-1F2 Concentration: 4458.6 pg/mL
  IL-1 beta/IL-1F2 MFI: 82.5
[4]
  IL-1 beta/IL-1F2 Concentration: 4488.3 pg/mL and 4428.9 pg/mL and 4458.6 pg/mL
  IL-1 beta/IL-1F2 MFI: 83.0 and 82.0 and 82.5
[5]
  IL-1 beta/IL-1F2 Concentration: 4725.9 pg/mL
  IL-1 beta/IL-1F2 MFI: 87.0
[6]
  IL-1 beta/IL-1F2 Concentration: 4963.6 pg/mL and 4785.3 pg/mL and 4428.9 pg/mL
  IL-1 beta/IL-1F2 MFI: 91.0 and 88.0 and 82.0
[7]
  IL-1 beta/IL-1F2 Concentration: 5379.8 pg/mL
  IL-1 beta/IL-1F2 MFI: 98.0
[8]
  IL-1 beta/IL-1F2 Concentration: 5379.8 pg/mL and 5558.3 pg/mL and 5201.4 pg/mL
  IL-1 beta/IL-1F2 MFI: 98.0 and 101.0 and 95.0
[9]
  IL-1 beta/IL-1F2 Concentration: 5280.8 pg/mL
  IL-1 beta/IL-1F2 MFI: 96.3
[10]
  IL-1 beta/IL-1F2 Concentration: 5588.1 pg/mL and 5469.1 pg/mL and 4785.3 pg/mL
  IL-1 beta/IL-1F2 MFI: 101.5 and 99.5 and 88.0
[11]
  IL-1 beta/IL-1F2 Concentration: 4508.2 pg/mL
  IL-1 beta/IL-1F2 MFI: 83.3
[12]
  IL-1 beta/IL-1F2 Concentration: 4428.9 pg/mL and 4191.5 pg/mL and 4904.1 pg/mL
  IL-1 beta/IL-1F2 MFI: 82.0 and 78.0 and 90.0
